Measured values from patent US12133909B2, “Use of evodone or a derivative thereof as a cooling agent” (ROBERTET S.A., priority 2019, dated 2024).

Legend:
[1] = Skin temperature by thermal camera after application of creams on the back; format: in vivo, human; conditions: 1% in cream
Protocol: For this study, the cooling effect of 5 compositions containing different cooling agents is evaluated in vivo according to the following protocol.
22 female subjects aged from 18 to 63 were selected. On the back of each subject, between the two scapulas, six areas of 3 cm×2.5 cm are delimited. On 5 areas chosen each time randomly, 15 mg of the compositions to be tested are applied. Nothing is applied onto the sixth area (i.e. control).
From the time of application of the creams (T0), the skin temperature of the different zones is measured on each subject using a thermal camera (Thermovision SC6000HS (Flirsystems)—resolution 640×512—frequency 125 Hz) at the following times: T0, T0+15 s, T0+30 s, T0+45 s, T0+1 min, T0+1 min30 s, T0+2 min, T0+3 min, T0+4 min, T0+5 min, T0+6 min, T0+8 min and T0+10 min. The measurements are performed at 21° C.±1.5° C., the subject lying on their stomach and motionless. The temperatures are measured with an accuracy of around 0.10° C.
A variance test (ANOVA) is used to compile and validate the results. […]
If these two conditions are met, the statistical analysis allowing comparing the parameters measured at the different times is conducted by a one-factor variance analysis (ANOVA) test on repeated measurements. […]

[2] = Cooling effect of creams rated on a 0 to 3 scale after application onto the forearms; format: in vivo, human; conditions: 1% in cream, forearm sensory score
Protocol: To measure the cooling effect, 100 mg of one of the creams 1 to 4 or of a placebo are applied onto the inner side of both forearms of persons who have agreed to test the product. After one minute, each participant is asked to rate the cooling effect on a scale of 0 to 3 (i.e. score), with 3 being the maximum effect.
Each cream (including the placebo) is applied randomly and blindly to the forearms of 17 people.

Cc1coc2c1C(=O)CC(C)C2 (stereo not drawn) [evodone, 6-dimethyl-6,7-dihydro-5H-1-benzofuran-4-one]
Cooling effect compared with menthyl lactate, citriodiol or cubebol [1]: cooling effect similar to that which can be provided by molecules such as menthyl lactate
Cooling effect compared with citriodiol or cubebol [2]: cooling effect similar to that which can be provided by molecules such as citriodiol or cubebol
Cooling effect compared with menthyl lactate (Frescolat ML) [2]: significantly greater than that obtained with menthyl lactate
